TGI and GI50 data for nine compounds are collected here from PubChem BioAssay (NCI).

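How tested: cells in 96-well plates exposed to compound for 48 hours at five concentrations. GI50 = concentration required for 50% inhibition of growth. Definition used: TGI = concentration required for complete inhibition of growth.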

Some test systems named below: K-562 leukemia; KM12 colon; RXF 393 renal; SF-539 CNS; SK-MEL-28 melanoma; TK-10 renal; UACC-62 melanoma; MDA-MB-231 breast; MDA-MB-435; T-47D breast.
Assay in all cases: growth of human tumour cells (NCI), 48 h

`COc1cccc(NC(=O)CC(=O)NNCC(=O)Nc2nnc(-c3ccc(N(CCC#N)S(=O)(=O)c4ccccc4)cc3)s2)c1`: the TGI in the assay with K-562 leukemia, in the assay with KM12 colon, in the assay on RXF 393 renal, with SF-539 CNS, in the assay on SK-MEL-28 melanoma and with TK-10 renal was more than 100 µM in each case. In the assay on UACC-62 melanoma, this compound had a TGI of more than 100 µM.

Take `COc1ccc2c(c1)CC1Cc3ccccc3CCN1C2` (stereo unspecified): the TGI is more than 100 µM with K-562 leukemia; more than 100 µM in the assay with KM12 colon; 63.6 µM in the assay on MDA-MB-231 breast; more than 100 µM in the assay on MDA-MB-435; more than 100 µM in the assay with RXF 393 renal; more than 100 µM in the assay with SF-539 CNS. Further, the TGI in the assay on SK-MEL-28 melanoma, with T-47D breast, in the assay with TK-10 renal and with UACC-62 melanoma was more than 100 µM throughout.

Regarding `CCC(=O)NC(OCC1(CC)COC1)(C(F)(F)F)C(F)(F)F`, the TGI in the assay with K-562 leukemia, in the assay on KM12 colon, in the assay with MDA-MB-231 breast, in the assay on MDA-MB-435, with RXF 393 renal and with SF-539 CNS was more than 100 µM each time. Besides, the TGI in the assay on SK-MEL-28 melanoma, in the assay on T-47D breast, with TK-10 renal and with UACC-62 melanoma was more than 100 µM throughout.

`COc1cc(OC)cc(-c2n/c(=C\c3c(O)[nH]c4ccc(Cl)cc34)cc3c2=Nc2ccccc2-3)c1`: the GI50 with K-562 leukemia was 2.72 µM; with KM12 colon, 3.95 µM; with MDA-MB-231 breast it was 2.84 µM; with MDA-MB-435, 14 µM; in the assay on RXF 393 renal, 6.05 µM; in the assay with SF-539 CNS, 20.4 µM. The GI50 with SK-MEL-28 melanoma is 29.3 µM; with T-47D breast, 4.39 µM; in the assay with TK-10 renal it was 3.79 µM; in the assay on UACC-62 melanoma, 16.9 µM. Moreover, the TGI in the assay with K-562 leukemia was 6.29 µM; with KM12 colon, 14.1 µM; with MDA-MB-231 breast it was 13.4 µM; with MDA-MB-435, 35.4 µM; in the assay with RXF 393 renal, 21.4 µM; in the assay with SF-539 CNS it was 45.8 µM. Besides, the TGI with SK-MEL-28 melanoma was more than 100 µM; with T-47D breast it was 17 µM; in the assay with TK-10 renal it was 8.96 µM; in the assay with UACC-62 melanoma, 35.2 µM.

In the case of `CCNc1ncnc2c1nnn2CC`, the TGI in the assay on K-562 leukemia, in the assay with KM12 colon, with MDA-MB-231 breast, in the assay on MDA-MB-435, in the assay on RXF 393 renal and in the assay on SF-539 CNS was more than 100 µM in each case. The TGI in the assay on SK-MEL-28 melanoma, in the assay on T-47D breast, in the assay on TK-10 renal and with UACC-62 melanoma was more than 100 µM each time.

On to `COC(=O)C1=C(C)N(NC(=O)c2ccccc2)C2(O)CCCC(=O)C12C` (stereo unspecified), for which the TGI with KM12 colon, with RXF 393 renal, in the assay with SF-539 CNS, with SK-MEL-28 melanoma, in the assay on TK-10 renal and in the assay with UACC-62 melanoma was more than 100 µM each time.

`CC(C)(C)OC(=O)NCC(=O)NC1C/C(=N\O)c2sccc21` (stereo unspecified): the TGI in the assay on K-562 leukemia, in the assay on MDA-MB-231 breast, with MDA-MB-435, in the assay with RXF 393 renal, with SF-539 CNS and with SK-MEL-28 melanoma was more than 100 µM in each case. Moreover, the TGI with T-47D breast, in the assay with TK-10 renal and in the assay on UACC-62 melanoma was more than 100 µM throughout.

Regarding `CN(/N=N/c1nc[nH]c1C(N)=O)C1CCCCC1`, the TGI with KM12 colon, in the assay with RXF 393 renal, in the assay with SF-539 CNS, in the assay on SK-MEL-28 melanoma, in the assay with TK-10 renal and in the assay with UACC-62 melanoma was more than 100 µM in each case.

`COc1ccc2c(c1OC)C(=O)O[C@@H]2[C@H]1c2cc3c(cc2CCN1C)OCO3`: the TGI in the assay with K-562 leukemia, in the assay with KM12 colon, with MDA-MB-231 breast, with MDA-MB-435, in the assay with SF-539 CNS and in the assay on T-47D breast was more than 100 µM each time. Moreover, the TGI in the assay on TK-10 renal and in the assay on UACC-62 melanoma was more than 100 µM throughout.
